Source: the OPERA property sets (Mansouri et al. 2018)

Details: for log10 BCF / log10 biotransformation half-life (days): fish

| SMILES | boiling point [°C] | melting point [°C] | other results |
| --- | --- | --- | --- |
| CCCCC[Si](Cl)(Cl)Cl | 172 |  |  |
| NC(=O)Cc1ccccc1 |  | 157 |  |
| CC(=O)N1CCN(c2ccc(OC[C@H]3CO[C@](Cn4ccnc4)(c4ccc(Cl)cc4Cl)O3)cc2)CC1 |  | 146 |  |
| Cc1ccc(Cl)c(O)c1Cl | 237 | 28 |  |
| c1ccc(-c2cccnc2)nc1 | 296 |  |  |
| CC(C)[C@@H](C)/C=C/[C@@H](C)[C@H]1CC[C@H]2C3=CC=C4C[C@@H](O)CC[C@]4(C)C3=CC[C@]12C |  | 146 |  |
| O=C(Cl)c1cccc([N+](=O)[O-])c1 | 276 | 36 |  |
| C=C(Cl)CC | 58.5 |  |  |
| CC(C)OB(OC(C)C)OC(C)C | 140 |  | log10 vapour pressure (mmHg): 0.875 |
| Brc1ccc(Oc2c(Br)cc(Br)cc2Br)c(Br)c1 |  |  | logP: 7.24; log10 BCF: 6.36 |
| O=[N+]([O-])c1c(Cl)ccc2ccccc12 |  | 99.5 |  |
| c1cc2c(c(NC3=NCCN3)c1)CCCC2 |  | 142 |  |
| N#CCc1cccc2ccccc12 |  | 32.5 |  |
| C#CCOc1ccc(N)cc1C(=O)NCCCC |  | 84 |  |
| Brc1cccnc1 | 173 |  | log10 vapour pressure (mmHg): 0.244 |
| C=CCOC(=O)CCC | 142 | -80 |  |
| CCc1ccc(C(C)C)cc1 | 197 |  |  |
| CCCCCCCCC=CCCCCCCCCCCCCO |  | 35 |  |
| CCCCCSC | 145 | -94 |  |
| CC(=O)Nc1ccccc1C(=O)O |  | 186 |  |
| CCCCCCCCCCCCCCCCCCl |  |  | log10 vapour pressure (mmHg): -4.34 |
| CCOC(=O)C1N=C(c2ccccc2F)c2cc(Cl)ccc2NC1=O (stereo not drawn) |  | 194 |  |
| CCCCOC(=O)OCCCC | 170 |  |  |

| SMILES | boiling point [°C] | melting point [°C] | other results |
| --- | --- | --- | --- |
| N#CC(Cl)(Cl)Cl | 85.7 | -42 | log10 vapour pressure (mmHg): 1.87 |
| NC[C@H](O)C(=O)O |  | 235 |  |
| Cc1nnc(-c2ccccc2)c(=O)n1N |  |  | log10 Koc (L/kg): 2.17; log10 vapour pressure (mmHg): -8.19 |
| CC(=O)CCCCO | 227 |  |  |
| CC(C)CCCCCCOC(=O)c1ccccc1C(=O)OCCCCCCC(C)C |  |  | ready biodegradability: readily biodegradable |
| Oc1ccc(-c2ccccc2)cc1Cl |  | 77 |  |
| CC(CO)CO | 195 | -91 | log10 vapour pressure (mmHg): -1.68 |
| CC(C)C(C(=O)OC(C#N)c1cccc(Oc2ccc(Br)cc2)c1)c1ccc(OC(F)F)cc1 (stereo not drawn) |  |  | log10 vapour pressure (mmHg): -8.92 |
| CC1CCCC(C)C1C (stereo not drawn) | 142 |  |  |
| Nc1cc(Cl)cc(Cl)c1 | 261 | 52 | log10 Koc (L/kg): 2.49; ready biodegradability: not readily biodegradable |
| Cc1n[nH]c(=S)[nH]c1=O |  | 218 |  |
| C=C1/C(=C\C=C2/CCC[C@]3(C)[C@@H]([C@H](C)CCCC(C)(C)O)CC[C@@H]23)C[C@@H](O)C[C@@H]1O |  | 115 |  |
| c1ccc2c(c1)cc1ccc3cc4ccccc4c4ccc2c1c34 |  | 282 | log10 Koc (L/kg): 5.71; log10 biodegradation half-life (days): 2.47 |
| CC(C)=C1CCCC(C)C1 (stereo not drawn) | 174 |  |  |
| CO[Si](C)(C)OC | 82 |  |  |
| Fc1ccc(Cl)cc1 | 130 | -26.8 |  |
| CC(=O)CC(c1ccccc1)c1c(O)c2ccccc2oc1=O (stereo not drawn) |  |  | log10 Koc (L/kg): 2.96; log10 vapour pressure (mmHg): -6.94 |
| CCCCOC(=O)C1(O)c2ccccc2-c2ccccc21 |  | 71 |  |
| O=C1c2ccccc2C(=O)N1c1ccccc1 |  | 210 |  |
| CCOC(=O)CCCCl | 184 |  |  |
| Clc1cc2c(c(Cl)c1Cl)Oc1c(Cl)c(Cl)c(Cl)c(Cl)c1O2 |  | 264 | log10 Koa: 11.4; log10 vapour pressure (mmHg): -10.2; log10 BCF: 3.67; log10 biotransformation half-life (days): 1.21 |
| CC(C)NCC(O)COc1ccc(O)cc1 (stereo not drawn) |  | 128 |  |
| O=[N+]([O-])c1c(Cl)ncnc1Cl |  | 102 |  |

| SMILES | boiling point [°C] | melting point [°C] | other results |
| --- | --- | --- | --- |
| C[Si](C)(C)c1ccccc1 | 170 |  |  |
| CCCN(CC)CC1COC2(CCC(C(C)(C)C)CC2)O1 (stereo not drawn) |  |  | log10 vapour pressure (mmHg): -3.89 |
| CC(C)C(C(C)C)C(C)C | 157 | -81.7 |  |
| O=C1C(=O)c2ccccc2C(Cl)=C1Cl |  | 184 |  |
| C=CCC1CCCC1 | 125 | -111 |  |
| NCCCCCCN | 205 | 41.5 | log10 vapour pressure (mmHg): -0.928; ready biodegradability: readily biodegradable |
| CC(Cl)CBr (stereo not drawn) | 118 |  |  |
| C/C=C1/C[C@@H](C)[C@](O)(CO)C(=O)OCC2=CCN3CC[C@@H](OC1=O)[C@@H]23 |  | 212 |  |
| O=[N+]([O-])c1ccc(Nc2ccc(O)cc2)c([N+](=O)[O-])c1 |  | 194 | log10 vapour pressure (mmHg): -11.4 |
| CC(C)COC(=O)Cc1ccccc1 | 247 |  |  |
| CCCOC(=O)Cn1cc(I)c(=O)c(I)c1 |  | 186 |  |
| CCOCCOCC | 119 | -74 | log10 vapour pressure (mmHg): 1.53 |
| COP(=O)(OC)O/C(C)=C/C(=O)N(C)C |  |  | log10 Henry constant (atm·m³/mol): -10.3; log10 Koc (L/kg): 1.66; log10 vapour pressure (mmHg): -3.8 |
| Clc1ccc(Cl)c(I)c1 | 253 | 22 |  |
| CCCCCCCCCCCC(C)=O | 263 | 30.5 | log10 vapour pressure (mmHg): -1.98 |
| CCCCCCOc1ccccc1C(N)=O |  | 71 |  |
| C1CCCOCC1 | 119 |  |  |
| C[Si](C)(Cl)c1ccccc1 |  |  | log10 vapour pressure (mmHg): -0.14 |
| CCNc1cccc2ccccc12 | 305 |  | ready biodegradability: not readily biodegradable; log10 BCF: 2.32; log10 biotransformation half-life (days): 0.43 |
| Clc1cc(Cl)c(Cl)c(-c2c(Cl)c(Cl)c(Cl)c(Cl)c2Cl)c1 |  |  | log10 Henry constant (atm·m³/mol): -4.85 |
| N=C(N)c1ccc(Oc2ccc(C(=N)N)cc2)cc1 |  | 216 |  |
| BrCCCCCCCCCCCCBr |  | 41 |  |
| Cc1cc(N(CCO)CCO)ccc1N=Nc1ccc([N+](=O)[O-])cc1Cl |  | 192 |  |
